For 11 compounds, inhibition, EC50 and Ratio EC50 results are on record in ChEMBL document CHEMBL2417445, “Access to 7β-analogs of codeine with mixed μ/δ agonist activity via 6,7-α-epoxide opening” (Bioorg Med Chem Lett, 2013).

Assay [1] addresses Mu-type opioid receptor (Mus musculus) (UniProt P42866). The assay can be described thus: Activation of mouse MOR assessed as inhibition of forskolin-stimulated cAMP accumulation after 30 mins by cell based TR-FRET assay relative to DAMGO. Format: functional.
Assay [2] addresses T1, Delta-type opioid receptor (Homo sapiens, UniProt P41143). The assay can be described thus: Activation of human DOR assessed as inhibition of forskolin-stimulated cAMP accumulation after 30 mins by cell based TR-FRET assay relative to DPDPE. The class given is functional.
Assay [3] addresses Mu-type opioid receptor (Mus musculus, UniProt P42866). Put plainly: Agonist activity at mouse MOR assessed as inhibition of forskolin-stimulated cAMP accumulation after 30 mins by cell based TR-FRET assay. The class given is functional.
For assay [4], the target named is Kappa-type opioid receptor (Mus musculus, UniProt P33534). The assay can be described thus: Agonist activity at mouse KOR assessed as inhibition of forskolin-stimulated cAMP accumulation after 30 mins by cell based TR-FRET assay. The class given is functional.
Assay [5] is filed under the species Homo sapiens. The assay can be described thus: Selectivity ratio of EC50 for human KOR to EC50 for human DOR.
Assay [6] is filed under the species Homo sapiens. The assay can be described thus: Selectivity ratio of EC50 for human KOR to EC50 for human MOR.
Assay [7] concerns the target Kappa-type opioid receptor (Homo sapiens, UniProt P41145). The class given is functional, cell-based.
Description: Agonist activity at human KOR assessed as inhibition of forskolin-stimulated cAMP accumulation after 30 mins by cell based TR-FRET assay
The target of assay [8] is T2, Mu-type opioid receptor (Homo sapiens, UniProt P35372). The assay can be described thus: Agonist activity at human MOR assessed as inhibition of forskolin-stimulated cAMP accumulation after 30 mins by cell based TR-FRET assay. The class given is functional.
Assay [9] has as its target T1, Delta-type opioid receptor. Put plainly: Agonist activity at human DOR assessed as inhibition of forskolin-stimulated cAMP accumulation after 30 mins by cell based TR-FRET assay. Format: functional.
Assay [10] addresses T2, Mu-type opioid receptor. Put plainly: Ratio of morphine EC50 to compound EC50 for human MOR.

T2 sequence (P35372 whole entry): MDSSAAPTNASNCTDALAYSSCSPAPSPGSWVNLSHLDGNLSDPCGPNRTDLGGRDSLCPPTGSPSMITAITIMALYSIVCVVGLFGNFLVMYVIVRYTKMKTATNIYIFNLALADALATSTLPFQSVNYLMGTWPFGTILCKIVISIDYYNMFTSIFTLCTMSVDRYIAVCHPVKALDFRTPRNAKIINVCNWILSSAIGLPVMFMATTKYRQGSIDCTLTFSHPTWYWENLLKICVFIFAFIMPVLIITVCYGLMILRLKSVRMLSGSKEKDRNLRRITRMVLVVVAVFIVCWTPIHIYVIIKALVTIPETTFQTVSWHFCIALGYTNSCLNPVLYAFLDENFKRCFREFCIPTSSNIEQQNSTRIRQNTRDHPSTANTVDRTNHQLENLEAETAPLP
Mu-type opioid receptor (Mus musculus), sequence (P42866 whole entry): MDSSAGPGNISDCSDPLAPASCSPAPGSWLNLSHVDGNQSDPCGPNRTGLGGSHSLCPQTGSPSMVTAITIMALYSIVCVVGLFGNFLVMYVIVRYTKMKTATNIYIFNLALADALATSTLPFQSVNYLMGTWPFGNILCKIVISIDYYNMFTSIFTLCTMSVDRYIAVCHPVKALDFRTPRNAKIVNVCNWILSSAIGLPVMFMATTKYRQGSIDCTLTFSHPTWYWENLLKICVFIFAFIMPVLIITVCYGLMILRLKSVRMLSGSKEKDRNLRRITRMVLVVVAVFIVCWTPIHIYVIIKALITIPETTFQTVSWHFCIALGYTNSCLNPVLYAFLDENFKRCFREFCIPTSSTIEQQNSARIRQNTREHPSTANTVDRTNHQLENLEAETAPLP
Mu-type opioid receptor (Mus musculus, UniProt P42866), sequence (P42866 whole entry): as above
Kappa-type opioid receptor (Mus musculus, UniProt P33534), sequence (P33534 whole entry): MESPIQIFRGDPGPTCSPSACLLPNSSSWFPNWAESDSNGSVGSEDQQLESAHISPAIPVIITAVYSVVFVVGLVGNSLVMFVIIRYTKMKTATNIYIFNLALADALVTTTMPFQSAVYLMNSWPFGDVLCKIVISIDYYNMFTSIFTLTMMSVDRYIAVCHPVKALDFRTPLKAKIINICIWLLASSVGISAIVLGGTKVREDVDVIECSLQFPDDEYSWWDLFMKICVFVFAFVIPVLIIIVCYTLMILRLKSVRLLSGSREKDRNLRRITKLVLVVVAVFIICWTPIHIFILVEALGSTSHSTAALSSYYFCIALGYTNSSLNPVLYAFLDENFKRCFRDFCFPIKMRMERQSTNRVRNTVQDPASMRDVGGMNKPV
Kappa-type opioid receptor (Homo sapiens, UniProt P41145), sequence (P41145 whole entry): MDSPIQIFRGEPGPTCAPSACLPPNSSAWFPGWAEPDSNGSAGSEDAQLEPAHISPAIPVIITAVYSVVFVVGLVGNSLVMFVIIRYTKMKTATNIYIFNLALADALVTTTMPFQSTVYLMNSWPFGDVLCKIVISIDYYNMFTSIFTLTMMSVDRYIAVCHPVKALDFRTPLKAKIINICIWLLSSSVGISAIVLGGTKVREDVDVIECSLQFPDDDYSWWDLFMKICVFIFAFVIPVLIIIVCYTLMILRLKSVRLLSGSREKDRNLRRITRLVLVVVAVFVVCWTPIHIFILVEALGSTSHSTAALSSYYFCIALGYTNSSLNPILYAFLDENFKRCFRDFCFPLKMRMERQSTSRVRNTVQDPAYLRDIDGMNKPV
T1 sequence (P41143 whole entry): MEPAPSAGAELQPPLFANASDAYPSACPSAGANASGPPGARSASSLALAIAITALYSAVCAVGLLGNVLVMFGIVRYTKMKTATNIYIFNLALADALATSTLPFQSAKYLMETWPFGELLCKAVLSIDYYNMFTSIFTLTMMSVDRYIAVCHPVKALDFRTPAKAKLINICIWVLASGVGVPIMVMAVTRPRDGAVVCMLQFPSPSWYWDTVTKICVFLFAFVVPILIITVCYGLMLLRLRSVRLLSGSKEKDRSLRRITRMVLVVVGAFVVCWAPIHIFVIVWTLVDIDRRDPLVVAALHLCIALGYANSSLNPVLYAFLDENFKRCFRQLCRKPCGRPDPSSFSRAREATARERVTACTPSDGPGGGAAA

On to `COc1cc(C)c2c3c1O[C@H]1[C@H](F)[C@H](C)C[C@H]4[C@@H](C2)N(C)CC[C@@]341`, for which the inhibition in assay [1] was found to be 78%; in assay [2], 86%. Further, the EC50 stood at 0.8 µM on Mu-type opioid receptor [3]; 10 µM in assay [4]; 5 µM in [7]; 3.2 µM at Mu-type opioid receptor [8]; 3.2 µM in assay [9]. Also, the Ratio EC50 in the assay listed under Homo sapiens [5] and in the assay listed under Homo sapiens [6] was 1 each time.

Take `CN1CC[C@]23c4c5ccc(O)c4O[C@H]2[C@@H](O)C=C[C@H]3[C@H]1C5`: the inhibition in [1] is 97%; in assay [2], 69%.

In the case of `COc1ccc2c3c1O[C@H]1[C@@H](OC)[C@H](C)C[C@H]4[C@@H](C2)N(C)CC[C@@]341`, the results for the inhibition in assay [1] and in assay [2] were 92% and 94%, respectively. For the same compound, the EC50 at Mu-type opioid receptor [3] amounted to 0.8 µM; in assay [4], 50 µM; in assay [7], 32 µM; on Mu-type opioid receptor [8], 3.2 µM; in [9], 2.5 µM. Besides, the Ratio EC50 stood at 13 in the assay filed under Homo sapiens [5] and 10 in the assay filed under Homo sapiens [6].

On to `C[C@@H]1C[C@H]2[C@H]3Cc4ccc(O)c5c4[C@@]2(CCN3C)[C@@H](O5)[C@H]1O`, for which the inhibition came out at 99% in assay [1] and 107% in assay [2]. Further, the values for the Ratio EC50 on Mu-type opioid receptor [10], in the assay filed under Homo sapiens [5] and in the assay filed under Homo sapiens [6] were 2, 20 and 80, respectively. In addition, the EC50 was 0.01 µM at Mu-type opioid receptor [3]; 1.6 µM in [4]; 1.6 µM in [7]; 0.02 µM on Mu-type opioid receptor [8]; 0.08 µM in assay [9].

Regarding `COc1ccc2c3c1O[C@H]1[C@@H](O)[C@H](OC)C[C@H]4[C@@H](C2)N(C)CC[C@@]341`, the inhibition worked out at 86% in [1] and 84% in [2]. Also, the half-maximal effective concentration (EC50) on Mu-type opioid receptor [3] worked out at 4 µM; in [7], 50 µM; on Mu-type opioid receptor [8] it was 16 µM; in assay [9], 13 µM. Moreover, the Ratio EC50 was 4 in the assay filed under Homo sapiens [5] and 3 in the assay filed under Homo sapiens [6].

As for `COc1ccc2c3c1O[C@H]1[C@@H](O)[C@H](C)C[C@H]4[C@@H](C2)N(C)CC[C@@]341`, the inhibition in [1] and in assay [2] was 97% throughout. In addition, the EC50 at Mu-type opioid receptor [3] was 0.6 µM; in assay [4], 32 µM; in [7], 25 µM; on Mu-type opioid receptor [8] it was 2 µM; in assay [9] it was 3.2 µM. Further, the Ratio EC50 in the assay listed under Homo sapiens [5] stood at 8; in the assay listed under Homo sapiens [6], 13.

On to `COc1cc(C)c2c3c1O[C@H]1[C@@H](O)[C@H](C)C[C@H]4[C@@H](C2)N(C)CC[C@@]341`, for which the inhibition amounted to 77% in [1] and 73% in [2]. The EC50 came to 2 µM at Mu-type opioid receptor [3], 50 µM in [4], 5 µM on Mu-type opioid receptor [8] and 16 µM in assay [9]. The Ratio EC50 in the assay filed under Homo sapiens [5] is 1; in the assay filed under Homo sapiens [6], 3.

In the case of `C[C@@H](NC(=O)[C@@H](N)Cc1ccc(O)cc1)C(=O)NCC(=O)N(C)[C@@H](Cc1ccccc1)C(=O)NCCO` [DAMGO], the inhibition in assay [2] was determined as 99%.

As to `COc1ccc2c3c1O[C@H]1C(=O)CC[C@@]4(O)[C@@H](C2)N(C)CC[C@]314` [OXYCODONE], the inhibition was determined as 97% in [1] and 93% in assay [2]. Also, the EC50 at Mu-type opioid receptor [3] is 0.16 µM; in assay [4], 16 µM.

Turning to `COc1ccc2c3c1O[C@H]1[C@@H](O)[C@H](F)C[C@H]4[C@@H](C2)N(C)CC[C@@]341`, the inhibition in [1] was determined as 79%; in assay [2] it was 90%. In addition, the 50% effective concentration (EC50) is 8 µM at Mu-type opioid receptor [3], 40 µM on Mu-type opioid receptor [8] and 79 µM in assay [9]. In addition, the Ratio EC50 turned out to be 1 in the assay filed under Homo sapiens [5] and 2 in the assay filed under Homo sapiens [6].

Take `COc1ccc2c3c1O[C@H]1[C@@H](O)[C@H](O)C[C@H]4[C@@H](C2)N(C)CC[C@@]341`: the inhibition came out at 96% in [1] and 117% in assay [2]. The concentration for a half-maximal effect (EC50) on Mu-type opioid receptor [3] came out at 6.3 µM; in [4], 159 µM; in assay [7], 126 µM; at Mu-type opioid receptor [8] it was 16 µM; in [9], 100 µM. The Ratio EC50 worked out at 1 in the assay filed under Homo sapiens [5] and 8 in the assay listed under Homo sapiens [6].
